Data published in patent publication US4734409A, “Cephalosporin derivative, process for producing the same and pharmaceutical composition containing the same” (Kureha Kagaku Kogyo Kabushiki Kaisha, priority 1984, dated 1988).

How the values were obtained:
Escherichia coli = assay: Effect on the intestinal bacterial colonies: E. coli in feces; assay type: in vivo, Escherichia coli (feces of female ICR-JCL mice); conditions: after administration; 100 mg/kg orally once a day, 2 days; before administration 6.4
Protocol: (§1) Effect of the present compound on the intestinal bacterial colonies was examined as follows.
(§2) The present compound prepared in Example 2 was orally administered to each of 5 animals of a group of female ICR-JCL mice of 6-weeks-old at a daily dosage of 100 mg/kg once a day for continuous 2 days. Feces of each of the mice were collected before and after one day of the administration, and after diluting thereof with 100 times by weight of an anaerobic diluent (an aqueous phosphoric acid buffer) the thus diluted feces were ground, and 0.1 ml of the thus ground and diluted feces was smeared on each culture medium for each bacterial species (shown in Table 1).
(§3) After incubating the thus prepared culture media at 25° C. for one to five days aerobically in the cases of Escherichia coli, Pseudomonas aeruginosa and the Streptococcus species or anaerobically in the cases of the Lactobacillus acidophilus, Lactobacillus bifidus and the Bacterioides species, the number of each bacteria proliferating on the culture medium was counted.
DHL aerobic, 37° C., one day

[1] = test system: Lactobacillus acidophilus; assay: Effect on the intestinal bacterial colonies: L. acidophilus in feces; assay type: in vivo, Lactobacillus acidophilus (feces of female ICR-JCL mice); conditions: after administration; 100 mg/kg orally once a day, 2 days; before administration 9.0
Protocol: as §1, §2, §3
(4) Lactobacillus acidophilus
LBS anaerobic, 37° C., 5 days

Bacteroides sp. = assay: Effect on the intestinal bacterial colonies: Bacteroides sp. in feces; assay type: in vivo, Bacteroides sp. (feces of female ICR-JCL mice); conditions: after administration; 100 mg/kg orally once a day, 2 days; before administration 8.3
Protocol: as §1, §2, §3

Pseudomonas aeruginosa = assay: Effect on the intestinal bacterial colonies: P. aeruginosa in feces; assay type: in vivo, Pseudomonas aeruginosa (feces of female ICR-JCL mice); conditions: after administration; 100 mg/kg orally once a day, 2 days; before administration <3.0
Protocol: as §1, §2, §3
(2) Pseudomonas aeruginosa

Lactobacillus bifidus = assay: Effect on the intestinal bacterial colonies: L. bifidus in feces; assay type: in vivo, Lactobacillus bifidus (feces of female ICR-JCL mice); conditions: after administration; 100 mg/kg orally once a day, 2 days; before administration 8.5
Protocol: as §1, §2, §3
(5) Lactobacillus bifidus

Streptococcus sp. = assay: Effect on the intestinal bacterial colonies: Streptococcus sp. in feces; assay type: in vivo, Streptococcus sp. (feces of female ICR-JCL mice); conditions: after administration; 100 mg/kg orally once a day, 2 days; before administration 6.8
Protocol: as §1, §2, §3
TATAC the same as above

## CO/N=C(\C(=O)N[C@@H]1C(=O)N2C(C(=O)OCOC(=O)C(C)(C)C)=C(CSc3nnc(C)s3)CS[C@H]12)c1csc(NC(=O)C(Cl)Cl)n1 [Example 2]
Escherichia coli
  Logarithmic value of the number of bacterial cells per one gram of feces, (1) E. coli: 6.4 Logarithmic value of the number of bacterial cells per one gram of feces
[1]
  Logarithmic value of the number of bacterial cells per one gram of feces, (4) L. acidophilus: 8.9 Logarithmic value of the number of bacterial cells per one gram of feces
Bacteroides sp.
  Logarithmic value of the number of bacterial cells per one gram of feces, (6) Bacteroides sp.: 8.2 Logarithmic value of the number of bacterial cells per one gram of feces
Pseudomonas aeruginosa
  Logarithmic value of the number of bacterial cells per one gram of feces, (2) P. aeruginosa: < 3.0 Logarithmic value of the number of bacterial cells per one gram of feces
Lactobacillus bifidus
  Logarithmic value of the number of bacterial cells per one gram of feces, (5) L. bifidus: 8.5 Logarithmic value of the number of bacterial cells per one gram of feces
Streptococcus sp.
  Logarithmic value of the number of bacterial cells per one gram of feces, (3) Streptococcus sp.: 7.0 Logarithmic value of the number of bacterial cells per one gram of feces
